In ChEMBL document CHEMBL1201862, “PubChem BioAssay data set” (2004):
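Following 48 hours of exposure in 96-well plates, responses at five concentrations were used to interpolate endpoints linearly. The concentration for 50% growth inhibition is given as GI50.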 Activity calls are given as the source filed them. Cut-off read from the data, not from the text of the source: active = GI50 up to about 1.1 µM and inactive = higher.

Legend:
Experiment in all cases: NCI-60 cell line screen, 48 h
A498 = system: A498
HCT-15 = system: HCT-15
HOP-62 = system: HOP-62
HT-29 = system: HT-29
IGROV-1 = system: IGROV-1
K562 = system: K562
Malme-3M = system: Malme-3M
OVCAR-8 = system: OVCAR-8
RPMI-8226 = system: RPMI-8226
SF-295 = system: SF-295
SK-MEL-5 = system: SK-MEL-5
SK-OV-3 = system: SK-OV-3
SN12C = system: SN12C
SR = system: SR
U-251 = system: U-251
UACC-257 = system: UACC-257
UACC-62 = system: UACC-62

Question: Which GI50 (A498) does the source give for CCc1nc2c(O)ccc(O)c2nc1C here?
Answer: 20.9 µM (inactive)

Question: What about the GI50 (HCT-15) of the same compound?
Answer: 16.4 µM

Question: And the GI50 (HOP-62)?
Answer: 18 µM (inactive)

Question: And the GI50 (HT-29)?
Answer: 17.2 µM (inactive)

Question: And the GI50 (IGROV-1)?
Answer: 19 µM (inactive)

Question: And the GI50 (K562)?
Answer: 4.08 µM (inactive)

Question: And the GI50 (Malme-3M)?
Answer: 15.8 µM (inactive)

Question: What about the GI50 (OVCAR-8) of the same compound?
Answer: 10 µM (inactive)

Question: What about the GI50 (RPMI-8226) of the same compound?
Answer: 3.8 µM (inactive)

Question: And the GI50 (SF-295)?
Answer: 20 µM (inactive)

Question: And the GI50 (SK-MEL-5)?
Answer: 17.5 µM (inactive)

Question: What about the GI50 (SK-OV-3) of the same compound?
Answer: 20 µM (inactive)

Question: What about the GI50 (SN12C) of the same compound?
Answer: 16 µM (inactive)

Question: What about the GI50 (SR) of the same compound?
Answer: 18.2 µM (inactive)

Question: What about the GI50 (U-251) of the same compound?
Answer: 16.5 µM (inactive)

Question: And the GI50 (UACC-257)?
Answer: 17.4 µM (inactive)

Question: And the GI50 (UACC-62)?
Answer: 14.3 µM (inactive)

Question: Which results are given for O=C1C(Cl)C(c2cc(Br)ccc2O)N1n1cnc2ccccc2c1=O (centres undefined)?
Answer: GI50 (A498): 65.8 µM (inactive); GI50 (HCT-15): 5.13 µM; GI50 (HOP-62): 13.7 µM (inactive); GI50 (HT-29): 30.5 µM (inactive); GI50 (IGROV-1): 17.5 µM (inactive); GI50 (K562): 5.27 µM (inactive); GI50 (Malme-3M): 20.5 µM (inactive); GI50 (OVCAR-8): 12.1 µM (inactive); GI50 (RPMI-8226): 5.4 µM (inactive); GI50 (SF-295): 16.8 µM (inactive); GI50 (SK-MEL-5): 16.8 µM (inactive); GI50 (SK-OV-3): 20 µM (inactive); GI50 (SN12C): 20 µM (inactive); GI50 (SR): 2.74 µM (inactive); GI50 (U-251): 10.7 µM (inactive); GI50 (UACC-257): 10.5 µM (inactive); GI50 (UACC-62): 11.5 µM (inactive)

Question: What does the source list for Cc1cc(NCCCCCCCCNc2cc(C)nc3cc(N)ccc23)c2ccc(N)cc2n1?
Answer: GI50 (A498): 39.6 µM (inactive); GI50 (HCT-15): 41.5 µM; GI50 (HOP-62): 26.9 µM (inactive); GI50 (HT-29): 21.8 µM (inactive); GI50 (K562): 1.95 µM (inactive); GI50 (OVCAR-8): 17.2 µM (inactive); GI50 (RPMI-8226): 6.68 µM (inactive); GI50 (SF-295): 18.2 µM (inactive); GI50 (SK-MEL-5): 10.9 µM (inactive); GI50 (SK-OV-3): 38.5 µM (inactive); GI50 (SN12C): 15.8 µM (inactive); GI50 (SR): 10.9 µM (inactive); GI50 (U-251): 8.57 µM (inactive); GI50 (UACC-257): 12.7 µM (inactive); GI50 (UACC-62): 17 µM (inactive)

Question: Which results are given for Cc1ccc(C2(O)CC(c3ccc([N+](=O)[O-])o3)=NN2C(=O)COc2ccccc2Cl)cc1 (centres undefined)?
Answer: GI50 (A498): 12.9 µM (inactive); GI50 (HCT-15): 4.68 µM; GI50 (HOP-62): 29.2 µM (inactive); GI50 (HT-29): 4.21 µM (inactive); GI50 (IGROV-1): 15.9 µM (inactive); GI50 (K562): 7.26 µM (inactive); GI50 (Malme-3M): 13.8 µM (inactive); GI50 (OVCAR-8): 11.2 µM (inactive); GI50 (RPMI-8226): 3.53 µM (inactive); GI50 (SF-295): 15.3 µM (inactive); GI50 (SK-MEL-5): 2.75 µM (inactive); GI50 (SK-OV-3): 81.1 µM (inactive); GI50 (SN12C): 8.22 µM (inactive); GI50 (SR): 3.24 µM (inactive); GI50 (U-251): 9.68 µM (inactive); GI50 (UACC-257): 8.18 µM (inactive); GI50 (UACC-62): 3.91 µM (inactive)

Question: Which GI50 (A498) does the source give for CCOC(=O)C=C1CCC2(CC1)OCCO2 here?
Answer: > 100 µM (inactive)

Question: And the GI50 (HCT-15)?
Answer: > 100 µM

Question: What about the GI50 (HT-29) of the same compound?
Answer: > 100 µM (inactive)

Question: What about the GI50 (IGROV-1) of the same compound?
Answer: > 100 µM (inactive)

Question: What about the GI50 (K562) of the same compound?
Answer: > 100 µM (inactive)

Question: And the GI50 (Malme-3M)?
Answer: > 100 µM (inactive)

Question: What about the GI50 (OVCAR-8) of the same compound?
Answer: > 100 µM (inactive)

Question: And the GI50 (RPMI-8226)?
Answer: > 100 µM (inactive)

Question: And the GI50 (SF-295)?
Answer: > 100 µM (inactive)

Question: What about the GI50 (SK-MEL-5) of the same compound?
Answer: > 100 µM (inactive)

Question: What about the GI50 (SK-OV-3) of the same compound?
Answer: > 100 µM (inactive)

Question: And the GI50 (SN12C)?
Answer: > 100 µM (inactive)

Question: What about the GI50 (SR) of the same compound?
Answer: > 100 µM (inactive)

Question: What about the GI50 (U-251) of the same compound?
Answer: > 100 µM (inactive)

Question: And the GI50 (UACC-257)?
Answer: > 100 µM (inactive)

Question: And the GI50 (UACC-62)?
Answer: > 100 µM (inactive)

Question: What does the source list for N#Cc1c2nc3ccccc3nc2n2ccccc12?
Answer: GI50 (A498): 76 µM (inactive); GI50 (HCT-15): > 100 µM; GI50 (HOP-62): > 100 µM (inactive); GI50 (IGROV-1): > 100 µM (inactive); GI50 (K562): > 100 µM (inactive); GI50 (Malme-3M): > 100 µM (inactive); GI50 (OVCAR-8): > 100 µM (inactive); GI50 (RPMI-8226): > 100 µM (inactive); GI50 (SK-MEL-5): > 100 µM (inactive); GI50 (SK-OV-3): 0.63 µM (active); GI50 (SN12C): > 100 µM (inactive); GI50 (SR): > 100 µM (inactive); GI50 (U-251): > 100 µM (inactive); GI50 (UACC-257): > 100 µM (inactive); GI50 (UACC-62): > 100 µM (inactive)

Question: How did the GI50 (A498) turn out when CC12OC3CC(O1)C1(C=O)C4CCC5(C)C(c6ccc(=O)oc6)CCC5(O)C4CCC1(C3)O2 (centres undefined) was run?
Answer: 0.33 µM (active)

Question: What about the GI50 (HCT-15) of the same compound?
Answer: 0.212 µM

Question: What about the GI50 (HOP-62) of the same compound?
Answer: 0.146 µM (active)

Question: What about the GI50 (HT-29) of the same compound?
Answer: 0.385 µM (active)

Question: And the GI50 (IGROV-1)?
Answer: 0.341 µM (active)

Question: And the GI50 (K562)?
Answer: 0.265 µM (active)

Question: What about the GI50 (Malme-3M) of the same compound?
Answer: 0.198 µM (active)

Question: And the GI50 (OVCAR-8)?
Answer: 0.256 µM (active)

Question: What about the GI50 (RPMI-8226) of the same compound?
Answer: 0.0313 µM (active)

Question: What about the GI50 (SF-295) of the same compound?
Answer: 0.0986 µM (active)

Question: And the GI50 (SK-MEL-5)?
Answer: 0.0895 µM (active)

Question: What about the GI50 (SK-OV-3) of the same compound?
Answer: 0.213 µM (active)

Question: And the GI50 (SN12C)?
Answer: 0.0621 µM (active)

Question: What about the GI50 (SR) of the same compound?
Answer: 0.0498 µM (active)

Question: What about the GI50 (U-251) of the same compound?
Answer: 0.293 µM (active)

Question: And the GI50 (UACC-257)?
Answer: 0.234 µM (active)

Question: What about the GI50 (UACC-62) of the same compound?
Answer: 0.288 µM (active)
